Results: patent publication US12084420B2, “Indoline compounds for inhibiting KIF18A” (Volastra Therapeutics, Inc., priority 2021, dated 2024)

Molecular target: hKIF18A (1-374) (Homo sapiens (Human), UniProt Q8NI77)
Assay: Inhibition of KIF18A microtubule-dependent ATPase activity (ADP-Glo)
Conditions: not given

Sequence of hKIF18A (1-374) (Q8NI77 whole entry, looked up): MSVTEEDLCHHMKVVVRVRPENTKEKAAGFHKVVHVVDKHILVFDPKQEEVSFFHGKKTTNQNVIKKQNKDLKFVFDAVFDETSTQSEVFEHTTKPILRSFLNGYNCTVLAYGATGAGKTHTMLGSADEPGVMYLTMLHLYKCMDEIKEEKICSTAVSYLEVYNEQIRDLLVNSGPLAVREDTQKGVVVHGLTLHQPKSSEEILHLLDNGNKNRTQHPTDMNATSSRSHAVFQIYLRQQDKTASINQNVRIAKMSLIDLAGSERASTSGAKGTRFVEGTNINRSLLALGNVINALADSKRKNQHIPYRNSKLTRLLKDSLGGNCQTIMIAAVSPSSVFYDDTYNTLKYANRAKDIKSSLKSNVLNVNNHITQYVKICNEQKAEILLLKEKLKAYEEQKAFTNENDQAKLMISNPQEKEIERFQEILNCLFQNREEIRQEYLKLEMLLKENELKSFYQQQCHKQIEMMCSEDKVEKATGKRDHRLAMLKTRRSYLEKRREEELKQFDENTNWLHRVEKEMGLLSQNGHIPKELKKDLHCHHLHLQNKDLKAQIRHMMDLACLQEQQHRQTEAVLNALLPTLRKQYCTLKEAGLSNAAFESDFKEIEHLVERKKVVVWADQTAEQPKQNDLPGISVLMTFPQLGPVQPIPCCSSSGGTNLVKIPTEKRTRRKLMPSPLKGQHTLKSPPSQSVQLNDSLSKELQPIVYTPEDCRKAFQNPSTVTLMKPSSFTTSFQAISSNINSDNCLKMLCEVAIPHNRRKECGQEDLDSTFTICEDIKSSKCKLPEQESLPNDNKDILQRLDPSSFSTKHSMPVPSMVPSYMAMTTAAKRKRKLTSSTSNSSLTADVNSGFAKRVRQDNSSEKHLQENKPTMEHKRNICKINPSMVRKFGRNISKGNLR
Sequence of hKIF18A (1-374) (Q2XVP4 whole entry partner, looked up): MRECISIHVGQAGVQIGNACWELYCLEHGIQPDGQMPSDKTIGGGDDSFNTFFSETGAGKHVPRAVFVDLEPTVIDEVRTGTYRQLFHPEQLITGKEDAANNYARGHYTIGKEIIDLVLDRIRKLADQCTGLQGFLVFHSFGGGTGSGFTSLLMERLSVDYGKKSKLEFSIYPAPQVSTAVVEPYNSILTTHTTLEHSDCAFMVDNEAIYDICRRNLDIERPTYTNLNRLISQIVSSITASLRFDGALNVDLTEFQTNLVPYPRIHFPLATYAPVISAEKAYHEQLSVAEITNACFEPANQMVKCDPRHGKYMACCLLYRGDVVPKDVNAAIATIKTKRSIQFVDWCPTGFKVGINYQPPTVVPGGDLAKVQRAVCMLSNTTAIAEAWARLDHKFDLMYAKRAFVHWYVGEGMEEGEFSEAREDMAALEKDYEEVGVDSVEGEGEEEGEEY
Sequence of hKIF18A (1-374) (P02554 whole entry partner, looked up): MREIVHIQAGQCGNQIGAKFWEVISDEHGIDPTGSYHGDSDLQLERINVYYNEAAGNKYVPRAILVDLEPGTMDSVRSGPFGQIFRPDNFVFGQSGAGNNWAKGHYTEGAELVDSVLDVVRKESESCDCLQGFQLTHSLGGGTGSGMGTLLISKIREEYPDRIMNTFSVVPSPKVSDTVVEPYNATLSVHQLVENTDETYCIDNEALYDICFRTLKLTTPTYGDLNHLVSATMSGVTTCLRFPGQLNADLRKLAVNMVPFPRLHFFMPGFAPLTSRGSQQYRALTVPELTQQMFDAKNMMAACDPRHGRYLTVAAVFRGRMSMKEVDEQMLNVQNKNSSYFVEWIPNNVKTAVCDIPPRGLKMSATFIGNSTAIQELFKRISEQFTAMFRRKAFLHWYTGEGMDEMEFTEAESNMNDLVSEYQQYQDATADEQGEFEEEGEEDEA

Row | IC50 | Compound
1 | 11 nM | C[C@@H]1CCN(S(=O)(=O)c2cccc(C(=O)N3CC4(CCC5(CC5)CC4)c4cc(NS(C)(=O)=O)ccc43)c2)C1 [(R)-Compound 249, (R)-N-(1″-(3-((3-methylpyrrolidin-1-yl)sulfonyl)benzoyl)dispiro[cyclopropane-1,1′-cyclohexane-4′,3″-indolin]-5″- yl)methanesulfonamide]

Same assay, conditions: KIF18A microtubule-dependent ATPase activity, biochemical assay

Row | Compound | IC50
2 | O=C(c1cccc(S(=O)(=O)N2CCC(F)(F)CC2)c1)N1CC2(CCCC2)c2c(F)cccc21 [Compound 1, (3-((4,4-difluoropiperidin-1-yl)sulfonyl)phenyl)(4′-fluorospiro[cyclopentane-1,3′-indolin]-1′-yl)methanone] | 1600 nM
3 | CS(=O)(=O)Nc1ccc2c(c1)C1(CCC3(CC3)CC1)CN2C(=O)c1ccc(O)c(S(=O)(=O)N2CC(F)(F)C2)c1 [Compound 303, N-(1″-(3-((3,3-difluoroazetidin-1-yl)sulfonyl)-4-hydroxybenzoyl)dispiro[cyclopropane-1,1′-cyclohexane-4′,3″-indolin]-5″-yl)methanesulfonamide] | 8.2 nM
4 | CS(=O)(=O)Nc1ccc2c(c1)C1(CCCCC1)CN2C(=O)c1csc(S(=O)(=O)NC2CCC2)c1 [Compound 284, N-cyclobutyl-4-(5′-(methylsulfonamido)spiro[cyclohexane-1,3′-indoline]-1′-carbonyl)thiophene-2-sulfonamide] | 26 nM
5 | CS(=O)(=O)Nc1ccc2c(c1)C1(CCC3(CC3)CC1)CN2C(=O)c1cccc(C(O)C2CC(F)(F)C2)c1 (stereo not drawn) [Compound 351, N-(1″-(3-((3,3-difluorocyclobutyl)(hydroxyj)methyl)benzoyl)dispiro[cyclopropane-1,1′-cyclohexane-4′,3″-indolin]-5″- yl)methanesulfonamide] | 8.8 nM
6 | CS(=O)(=O)Nc1ccc2c(c1)C1(CCCCC1)CN2C(=O)c1cccc(S(=O)(=O)N2CCCCC2)c1 [Compound 240, N-(1′-(3-(piperidin-1-ylsulfonyl)benzoyl)spiro[cyclohexane-1,3′-indolin]-5′-yl)methanesulfonamide] | 40 nM
7 | CS(=O)(=O)Nc1ccc2c(c1)C1(CCC3(CC3)CC1)CN2C(=O)c1ccnc([C@H](O)C2CCCC2)c1 (single isomer, unassigned) [Compound 316b] | 16 nM
8 | O=C(c1cccc(S(=O)(=O)N2CCCCC2)c1)N1CC2(CCC3(CC3)CC2)c2ccccc21 [Compound 6, dispiro[cyclopropane-1,1′-cyclohexane-4′,3″-indolin]-1″-yl(3-(piperidin-1-ylsulfonyl)phenyl)methanone] | 580 nM
9 | CC(O)(c1cccc(C(=O)N2CC3(CCC4(CC4)CC3)c3cc(NS(C)(=O)=O)ccc32)c1)C1CCCC1 (stereo not drawn) [Compound 331, N-(1″-(3-(1-cyclopentyl-1-hydroxyethyl)benzoyl)dispiro[cyclopropane-1,1′-cyclohexane-4′,3″-indolin]-5″-yl)methanesulfonamide] | 35 nM
10 | CS(=O)(=O)Nc1ccc2c(c1)C1(CCC3(CC3)CC1)CN2C(=O)c1cccc(C(O)C2CCCC2)n1 (stereo not drawn) [Compound 317, N-(1″-(6-(cyclopentyl(hydroxy)methyl)picolinoyl)dispiro[cyclopropane-1,1′-cyclohexane-4′,3″-indolin]-5″- yl)methanesulfonamide] | 11 nM
11 | CS(=O)(=O)Nc1ccc2c(c1)C1(CCC3(CC3)CC1)CN2C(=O)c1cccc(C(O)CC2CCC2)c1 (stereo not drawn) [Compound 305, N-(1″-(3-(2-cyclobutyl-1-hydroxyethyl)benzoyl)dispiro [cyclopropane-1,1′-cyclohexane-4′,3″-indolin]-5″-yl)methanesulfonamide] | 8.9 nM
12 | CS(=O)(=O)Nc1ccc2c(c1)C1(CCC3(CC3)CC1)CN2C(=O)c1cccc(CN2CCCO2)c1 [Compound 346, N-(1″-(3-(isoxazolidin-2-ylmethyl)benzoyl)dispiro[cyclopropane-1,1′-cyclohexane-4′,3″-indolin]-5″- yl)methanesulfonamide] | 310 nM
13 | O=C(c1cccc(S(=O)(=O)NC2CCC2)c1)N1CC2(CCC3(CC3)CC2)c2cc(NS(=O)(=O)CCO)ccc21 [Compound 227, N-cyclobutyl-3-(5″-((2-hydroxyethyl)sulfonamido)dispiro[cyclopropane-1,1′-cyclohexane-4′,3″- indoline]-1″- carbonyl)benzenesulfonamide] | 7.2 nM
14 | CCS(=O)(=O)Nc1ccc2c(c1)C1(CCC3(CC3)CC1)CN2C(=O)c1cccc(S(=O)(=O)NC2CC(F)(F)C2)c1 [Compound 293, N-(3,3-difluorocyclobutyl)-3-(5″- (ethylsulfonamido)dispiro[cyclopropane-1,1′-cyclohexane-4′,3″-indoline]-1″- carbonyl)benzenesulfonamide] | 17 nM
15 | CC(C)(C)[C@@H](O)c1ccc(C(=O)N2CC3(CCC4(CC4)CC3)c3cc(NS(C)(=O)=O)ccc32)o1 (single isomer, unassigned) [Compound 373a] | 200 nM
16 | CS(=O)(=O)Nc1ccc2c(c1)C1(CCC3(CC3)CC1)CN2C(=O)c1cccc(C(O)C2CCCC2)c1 (stereo not drawn) [Compound 165, N-(1″-(3-(cyclopentyl(hydroxy)methyl)benzoyl)dispiro[cyclopropane-1,1′-cyclohexane-4′,3″indolin]-5″- yl)methanesulfonamide] | 15 nM
17 | C[C@@H](c1cccc(C(=O)N2CC3(CCC4(CC4)CC3)c3cc(NS(C)(=O)=O)ccc32)c1)N1CCC(F)(F)CC1 (single isomer, unassigned) [Compound 341a] | 30 nM
18 | CS(=O)(=O)Nc1ccc2c(c1)C1(CCC3(CC3)CC1)CN2C(=O)c1cccc(C(O)CN2CCC(F)(F)CC2)c1 (stereo not drawn) [Compound 315, N-(1″-(3-(2-(4,4-difluoropiperidin-1-yl)-1-hydroxyethyl)benzoyl)dispiro[cyclopropane-1,1′-cyclohexane-4′,3″-indolin]-5″-yl)methanesulfonamide] | 53 nM

Further lines, results first:

Row | IC50 | Compound
19 | 9 nM | CC1CCN(S(=O)(=O)c2cccc(C(=O)N3CC4(CCC5(CC5)CC4)c4cc(NS(C)(=O)=O)ccc43)c2)C1 (stereo not drawn) [Compound 249, N-(1″-(3-((3-methylpyrrolidin-1-yl)sulfonyl)benzoyl)dispiro[cyclopropane-1,1′-cyclohexane-4′,3″-indolin]-5″- yl)methanesulfonamide]
20 | 26 nM | CCC(CC)NS(=O)(=O)c1cccc(C(=O)N2CC3(CCC4(CC4)CC3)c3cc(NS(C)(=O)=O)ccc32)c1 [Compound 198, 3-(5″- (methylsulfonamido)dispiro[cyclopropane-1,1′-cyclohexane-4′,3″-indoline]-1″-carbonyl)-N-(pentan-3-yl)benzenesulfonamide]
21 | 10 nM | CS(=O)(=O)Nc1ccc2c(c1)C1(CCC3(CC3)CC1)CN2C(=O)c1cccc(S(=O)(=O)NC2C=CCCC2)c1 (stereo not drawn) [Compound 196, N-(cyclohex-2-en-1-yl)-3-(5″- (methylsulfonamido)dispiro[cyclopropane-1,1′-cyclohexane-4′,3″-indoline]-1″-carbonyl)benzenesulfonamide]
22 | 35 nM | CS(=O)(=O)Nc1ccc2c(c1)C1(CCC3(CC3)CC1)CN2C(=O)c1cccc(S(=O)(=O)NC2(C#N)CC2)c1 [Compound 264, N-(1-cyanocyclopropyl)-3-(5″- (methylsulfonamido)dispiro[cyclopropane-1,1′-cyclohexane-4′,3″-indoline]-1″-carbonyl)benzenesulfonamide]
23 | 14 nM | CC(C)(C)NS(=O)(=O)c1ccc(C(=O)N2CC3(CCC4(CC4)CC3)c3cc(NS(C)(=O)=O)ccc32)o1 [Compound 299, N-(tert-butyl)-5-(5″- (methylsulfonamido)dispiro[cyclopropane-1,1′-cyclohexane-4′,3″-indoline]-1″-carbonyl)furan-2-sulfonamide]
24 | 51 nM | CN(C1CC(F)(F)C1)S(=O)(=O)c1cccc(C(=O)N2CC3(CCC4(CC4)CC3)c3cc(NS(C)(=O)=O)ccc32)c1 [Compound 356, N-(3,3-difluorocyclobutyl)-N-methyl-3-(5″- (methylsulfonamido)dispiro[cyclopropane-1,1′-cyclohexane-4′,3″-indoline]-1″-carbonyl)benzenesulfonamide]
25 | 78 nM | CC(C)(C)NS(=O)(=O)c1ccc(C(=O)N2CC3(CCCCC3)c3cc(NS(C)(=O)=O)ccc32)o1 [Compound 149, N-(tert-butyl)-5-(5′-(methylsulfonamido)spiro[cyclohexane-1,3′-indoline]-1′-carbonyl)furan-2-sulfonamide]
26 | 34 nM | CC1CCC2(C1)CN(C(=O)c1cccc(S(=O)(=O)NC(C)(C)C)c1)c1ccc(NS(C)(=O)=O)cc12 (stereo not drawn) [Compound 252, N-(tert-butyl)-3-(3-methyl-5′-(methylsulfonamido)spiro[cyclopentane-1,3′-indoline]-1′-carbonyl)benzenesulfonamide]
27 | 100 nM | CS(=O)(=O)Nc1ccc2c(c1)C1(CCC3(CC3)CC1)CN2C(=O)c1cccc(S(=O)(=O)NC2CC(O)C2)c1 (stereo not drawn) [Compound 218, N-(3-hydroxycyclobutyl)-3-(5″- (methylsulfonamido)dispiro[cyclopropane-1,1′-cyclohexane-4′,3″-indoline]-1″-carbonyl)benzenesulfonamide]
28 | 86 nM | CC1CCN(S(=O)(=O)c2cccc(C(=O)N3CC4(CCCCC4)c4cc(NS(C)(=O)=O)ccc43)c2)C1 (stereo not drawn) [Compound 71, N-(1′-(3-((3-methylpyrrolidin-1-yl)sulfonyl)benzoyl)spiro[cyclohexane-1,3′-indolin]-5′-yl)methanesulfonamide]
29 | 25 nM | CC(C)(CO)NS(=O)(=O)c1cccc(C(=O)N2CC3(CCC4(CC4)CC3)c3cc(NS(C)(=O)=O)ccc32)c1 [Compound 220, N-(1-hydroxy-2-methylpropan-2-yl)-3-(5″- (methylsulfonamido)dispiro[cyclopropane-1,1′-cyclohexane-4′,3″-indoline]-1″-carbonyl)benzenesulfonamide]
30 | 270 nM | CS(=O)(=O)Nc1ccc2c(c1)C1(CCCCC1)CN2C(=O)c1cccc(S(=O)(=O)N2CCC2)c1 [Compound 45, N-(1′-(3-(azetidin-1-ylsulfonyl)benzoyl)spiro[cyclohexane-1,3′-indolin]-5′-yl)methanesulfonamide]
